Results on 37 compounds are retold here after ChEMBL document CHEMBL4483862, “Open-source discovery of chemical leads for next-generation chemoprotective antimalarials” (2018).

Each structure is given as a SMILES string.

The term IC50 denotes the concentration at which inhibition is half-maximal. A word on the IC90: it is the concentration at which the effect reaches the 90% level.

This test concerns Plasmodium berghei. The experiment in a line: Luciferase/luciferin-expressing antifolate-resistant parasites were used to infect a culture of HepG2 cells that were pre-incubated with compounds. Infected hepatocytes emit light due to the luciferase reaction. Assay results are presented as the percent inhibition of light emission compared to control. […]. Format: functional. The settings on record: sporozoite; for IC90: read-out: LUCIFERASE INFECTION ASSAY - IC90.

The mark [1] stands for this setting: read-out: LUCIFERASE INFECTION ASSAY - IC50.

Take `CCC(C)NC(=O)c1c(NC(=O)c2ccc(F)cc2)nc2ccc(C)cn12` (centres undefined): the 90% effect concentration (IC90) came to 3.49 µM. Besides, where the note is “HEPG2TOX_HILL_SLOPE 5.39, HEPG2TOX_R_SQUARED 0.713, PBLUC_HILL_SLOPE 10.6, PBLUC_R_SQUARED 0.548, read-out: LUCIFERASE INFECTION ASSAY - IC50”, the IC50 was found to be 2.84 µM.

As for `CCOC(=O)C1=C(CSc2nc3ccccc3c(=O)n2-c2ccc(OC(F)F)cc2)NC(=O)NC1C` (centres undefined), the IC90 was over 10 µM. Also, under “HEPG2TOX_HILL_SLOPE 1.17, HEPG2TOX_R_SQUARED 0.429, PBLUC_HILL_SLOPE 8.23, PBLUC_R_SQUARED 0.327, read-out: LUCIFERASE INFECTION ASSAY - IC50”, the IC50 is 8.35 µM.

For the compound `OC1CCN(c2ccnc3c(-c4ccc(Oc5ccccc5)cc4)cnn23)CC1`, the IC90 was 7.21 µM. In addition, the IC50 (HEPG2TOX_HILL_SLOPE 2.26, HEPG2TOX_R_SQUARED 0.638, PBLUC_HILL_SLOPE 2.48, PBLUC_R_SQUARED 0.699, read-out: LUCIFERASE INFECTION ASSAY - IC50) is 2.98 µM.

For the compound `CC(CCc1ccccc1)NC(=O)CN1CCN(C/C=C/c2ccccc2)CC1` (centres undefined), the IC90 is over 10 µM. Also, the IC50 under setting [1] was over 10 µM.

Regarding `CC(=O)Oc1cc2sc(=O)oc2c2ccccc12`, the IC90 was over 12.7 µM. In addition, under setting [1], the IC50 is over 12.7 µM.

Consider `COC(=O)c1cc(CSc2nnc(-c3ccc(C)cc3)c(-c3ccc(C)cc3)n2)oc1C`, for which the IC90 was over 10 µM. The concentration for half-maximal inhibition (IC50) (FFLUC_HILL_SLOPE 4.52, FFLUC_R_SQUARED 0.588, read-out: LUCIFERASE INFECTION ASSAY - IC50) is over 10 µM.

Regarding `CC(C)=CC(=O)Nc1scc(-c2ccccc2)c1C(=O)OCc1nnc(-c2cccs2)o1`, the IC90 is over 10 µM. In addition, the IC50 (FFLUC_HILL_SLOPE 8.85, FFLUC_R_SQUARED 0.514, PBLUC_HILL_SLOPE 2.24, PBLUC_R_SQUARED 0.566, read-out: LUCIFERASE INFECTION ASSAY - IC50) worked out at 5.03 µM.

On to `Cc1sc2nc(-c3cccs3)nc(N3CCCN(CC(=O)NC(C)C)CC3)c2c1C`, for which the IC90 was over 10 µM. Besides, the IC50 (PBLUC_HILL_SLOPE 9.52, PBLUC_R_SQUARED 0.368, read-out: LUCIFERASE INFECTION ASSAY - IC50) is 8.07 µM.

As to `CCOC(=O)c1cnc2cc(Cl)c(F)cc2c1Sc1ccc(Cl)cc1`, the IC90 is over 8.33 µM. In addition, the IC50 under setting [1] was over 8.33 µM.

As for `OC(CN1CC=C(c2c[nH]c3ccccc23)CC1)c1ccccc1` (centres undefined), the IC90 is over 10 µM. Also, the IC50 (HEPG2TOX_HILL_SLOPE 8.59, HEPG2TOX_R_SQUARED 0.892, PBLUC_HILL_SLOPE 2.5, PBLUC_R_SQUARED 0.397, read-out: LUCIFERASE INFECTION ASSAY - IC50) was 5.3 µM.

For the compound `Cc1cc(NC(=O)Cn2ncc(Br)c(Br)c2=O)n(C)n1`, the IC90 is over 10 µM. Further, the IC50 (FFLUC_HILL_SLOPE 13, FFLUC_R_SQUARED 0.376, HEPG2TOX_HILL_SLOPE 25.8, HEPG2TOX_R_SQUARED 0.794, PBLUC_HILL_SLOPE 3.09, PBLUC_R_SQUARED 0.556, read-out: LUCIFERASE INFECTION ASSAY - IC50) came to 5.35 µM.

As to `C/C(=N\NC(=O)c1sc2ccccc2c1Cl)c1ccc(C(C)(C)C)cc1`, the IC90 was over 10 µM. For the same compound, for the setting “PBLUC_HILL_SLOPE 2.25, PBLUC_R_SQUARED 0.703, read-out: LUCIFERASE INFECTION ASSAY - IC50”, the IC50 turned out to be 4.74 µM.

Consider `CC(=O)O[C@]1(C(C)=O)CCC2C3C[C@H](C)C4=CC(=O)CCC4(C)C3CCC21C` (some centres undefined), for which the IC90 was over 8.54 µM. Besides, the 50% inhibitory concentration (IC50) (HEPG2TOX_HILL_SLOPE 11.5, HEPG2TOX_R_SQUARED 0.0757, read-out: LUCIFERASE INFECTION ASSAY - IC50) is over 8.54 µM.

Take `O=C(Nc1cccc(C(F)(F)F)c1)c1ccc(-c2ccccc2F)cc1`: the IC90 is over 9.18 µM. Moreover, under setting [1], the IC50 was over 9.18 µM.

Turning to `NC(=S)N/N=C/c1ncc(C(F)(F)F)cc1Cl`, the IC90 stood at 4.07 µM. For the same compound, the IC50 (HEPG2TOX_HILL_SLOPE 1.78, HEPG2TOX_R_SQUARED 0.942, PBLUC_HILL_SLOPE 40.1, PBLUC_R_SQUARED 0.426, read-out: LUCIFERASE INFECTION ASSAY - IC50) came out at 3.85 µM.

Regarding `FC(F)(F)c1c(-c2nc(-c3ccc(Cl)cc3)no2)cnn1-c1ccccc1`, the IC90 is 1.19 µM. The IC50 (PBLUC_HILL_SLOPE 1.45, PBLUC_R_SQUARED 0.734, read-out: LUCIFERASE INFECTION ASSAY - IC50) turned out to be 0.262 µM.

Consider `CNc1nc2cnc(-c3ccc(OC)cc3C)cc2n1Cc1ccc(OC)c(OC)c1`, for which the IC90 is 1.22 µM. Moreover, the IC50 (PBLUC_HILL_SLOPE 14.3, PBLUC_R_SQUARED 0.611, read-out: LUCIFERASE INFECTION ASSAY - IC50) stood at 1.04 µM.

As for `Cn1cnnc1C1CCCN(S(C)(=O)=O)C1` (centres undefined), the IC90 was over 10 µM. Moreover, the IC50 under setting [1] was over 10 µM.

On to `O=C(NCc1ccc(Cl)cc1Cl)/C(=C/c1cccs1)n1nnnc1-c1ccccc1`, for which the concentration for an effect of 90% (IC90) is over 10 µM. For the same compound, the IC50 (PBLUC_HILL_SLOPE 1.46, PBLUC_R_SQUARED 0.613, read-out: LUCIFERASE INFECTION ASSAY - IC50) came to 4.83 µM.

`CCn1ccnc1C(=O)Nc1nc(-c2ccc3c(c2)OCCO3)cs1`: the IC90 is 1.92 µM. Besides, where the note is “HEPG2TOX_HILL_SLOPE 10.1, HEPG2TOX_R_SQUARED 0.135, PBLUC_HILL_SLOPE 182, PBLUC_R_SQUARED 0.438, read-out: LUCIFERASE INFECTION ASSAY - IC50”, the IC50 is 1.89 µM.

Regarding `Cn1c(-c2cncc(C#Cc3ccccc3)c2)n[nH]c1=S`, the IC90 was over 11.3 µM. For the same compound, under setting [1], the IC50 is over 11.3 µM.

Turning to `O=C(Nc1nc(-c2ccccn2)cs1)c1nn(-c2ccc(F)cc2)c2c1CCCC2`, the IC90 turned out to be 8.94 µM. The IC50 (PBLUC_HILL_SLOPE 4.43, PBLUC_R_SQUARED 0.595, read-out: LUCIFERASE INFECTION ASSAY - IC50) stood at 5.45 µM.

As for `C(#Cc1ccc(-c2cc[nH]n2)s1)c1ccccc1`, the IC90 is over 13.2 µM. Also, the IC50 (PBLUC_HILL_SLOPE 0.121, PBLUC_R_SQUARED 0.262, read-out: LUCIFERASE INFECTION ASSAY - IC50) amounted to 0.0465 µM.

In the case of `CC(C)c1cc(=O)oc2cc(OS(=O)(=O)c3cc(C(N)=O)n(C)c3)ccc12`, the IC90 was over 10 µM. Moreover, the half-maximal inhibitory concentration (IC50) under setting [1] is over 10 µM.

Consider `Cc1nn(-c2ccc(F)cc2)c(Cl)c1/C=C1\C(=O)Nc2ccccc21`, for which the IC90 came to 4.68 µM. Moreover, the IC50 (HEPG2TOX_HILL_SLOPE 2.09, HEPG2TOX_R_SQUARED 0.992, PBLUC_HILL_SLOPE 1.31, PBLUC_R_SQUARED 0.551, read-out: LUCIFERASE INFECTION ASSAY - IC50) came to 0.878 µM.

In the case of `Cc1ccc(-c2nc(SCCC(N)=O)[nH]c2-c2ccc(C)cc2)cc1`, the IC90 is over 10 µM. Besides, the IC50 under setting [1] was over 10 µM.

With `Cn1cccc1C(=O)NC(=O)COC(=O)CCNC(=O)c1ccc([N+](=O)[O-])cc1`, the 90% effect concentration (IC90) is over 10 µM. In addition, the IC50 under setting [1] is over 10 µM.

With `Cc1cc(C(=O)ONC(=N)c2c(-c3c(Cl)cccc3Cl)noc2C)no1`, the IC90 is over 8.35 µM. Besides, the IC50 (PBLUC_HILL_SLOPE 25.8, PBLUC_R_SQUARED 0.198, read-out: LUCIFERASE INFECTION ASSAY - IC50) was determined as 8.05 µM.

On to `CC(Oc1ccc(-c2ccc(C#N)cc2)cc1)C(=O)C12CC3CC(CC(C3)C1)C2` (centres undefined), for which the IC90 is over 10 µM. Also, the IC50 (PBLUC_HILL_SLOPE 2.77, PBLUC_R_SQUARED 0.53, read-out: LUCIFERASE INFECTION ASSAY - IC50) stood at 5.65 µM.

`CCn1cc(C(=O)OC)c(=O)c2cc(C(F)(F)F)ccc21`: the IC90 is over 11 µM. The IC50 (PBLUC_HILL_SLOPE 2.56, PBLUC_R_SQUARED 0.477, read-out: LUCIFERASE INFECTION ASSAY - IC50) came to 5.72 µM.

On to `COC(=O)c1cc2c(N)c(C(=O)c3ccc(Cl)cc3)sc2nc1C(OC)OC`, for which the IC90 was over 7.84 µM. Also, the IC50 under setting [1] is over 7.84 µM.

Turning to `COc1ccc(-c2cnc3cnc(-c4cccc(NS(C)(=O)=O)c4)cn23)cc1`, the IC90 was 3.7 µM. The IC50 (PBLUC_HILL_SLOPE 9.6, PBLUC_R_SQUARED 0.49, read-out: LUCIFERASE INFECTION ASSAY - IC50) was 2.94 µM.

On to `COc1ccc(CNCC(O)COc2ccc(C(C)(C)C)cc2C)cc1OC` (centres undefined), for which the concentration for an effect of 90% (IC90) amounted to 10 µM. Besides, the IC50 (HEPG2TOX_HILL_SLOPE 9.88, HEPG2TOX_R_SQUARED 0.866, PBLUC_HILL_SLOPE 15, PBLUC_R_SQUARED 0.0695, read-out: LUCIFERASE INFECTION ASSAY - IC50) was 8.63 µM.

For the compound `Fc1ccc(N/N=C/Cc2nnnn2-c2ccccc2)cc1`, the IC90 is over 11.1 µM. In addition, the IC50 (HEPG2TOX_HILL_SLOPE 8.77, HEPG2TOX_R_SQUARED 0.625, PBLUC_HILL_SLOPE 4.51, PBLUC_R_SQUARED 0.347, read-out: LUCIFERASE INFECTION ASSAY - IC50) came out at 7.9 µM.

Regarding `CCn1c2ccc(Cl)cc2c2cc(Cl)ccc21`, the IC90 was over 12.5 µM. Besides, the half-maximal inhibitory concentration (IC50) under setting [1] was over 12.5 µM.

Regarding `CCN(CC)CCNC(=O)c1ccc(-c2ccccc2)cc1`, the IC90 was over 11.1 µM. Further, the IC50 (PBLUC_HILL_SLOPE 0.701, PBLUC_R_SQUARED 0.65, read-out: LUCIFERASE INFECTION ASSAY - IC50) is 5.34 µM.

Take `O=C1C(=O)N(Cc2cc3c(cc2Cl)OCO3)c2ccc(Br)cc21`: the IC90 was over 8.36 µM. Also, the IC50 (FFLUC_HILL_SLOPE 13.4, FFLUC_R_SQUARED 0.714, HEPG2TOX_HILL_SLOPE 8.11, HEPG2TOX_R_SQUARED 0.359, PBLUC_HILL_SLOPE 6.2, PBLUC_R_SQUARED 0.151, read-out: LUCIFERASE INFECTION ASSAY - IC50) turned out to be 7.48 µM.
